For experiment [1], the system named is human neutrophils. The experiment can be described thus: Inhibition of C5a induced degranulation (MPO release). It is filed as cell-based. Here is the method: (§1) FIG. 7A and 7B. […] These concentrations of the stimulating agents released 22% and 19% of the total cellular MPO, respectively.
(§2) This assay was performed on human neutrophils as previously reported and it is a measure of C5a or peptide induced exocytosis (Rollins, T. E. and Springer, M. S. (1985) J. Biol. Chem. 260, 7157-7160).

For experiment [2], the system named is human neutrophil membranes. As to the kind of experiment: Inhibition of C5a stimulated GTPase activity. It is filed as biochemical. Here is the method: as §1
The method of Kupper et al. (Kupper, R. W., Dewald, B., Jakobs, K. H., Baggiolini, M. and Gierschik, P. (1992) Biochem. J. 282, 429-434) was adapted for use in microtiter plates. Neutrophil membranes were suspended in 50 mM triethanolamine-HCl, 5 mM MES, pH 7.3, containing 1 mM EDTA, 5 mM MgCl2, 143 mM NaCl, 0.16 % BSA, 1 mM ouabain, 1 mM AMP-PNP, 0.5 mM ATP, 2.5 U/mL creatine phosphokinase,. 10 mM creatine phosphate, 0.1 mM PMSF and 10 ng/mL each of leupeptin, aprotinin and chymostatin. 50 μL of membranes containing 1-5 μg protein were added to 50 μL of the same buffer containing the test agent and 0.25 μM [γ-^32 P]-GTP (2,000 cpm/pmol) in the wells of a U-shaped microtiter plate. After incubation for 15-30 rain at 29° C., 100 μL of a 10% (w/v) charcoal suspension in 100 mM H3 PO4 was added and plates were centrifuged at 2000 rpm for 5 min. 100 μL of the supernatant was transferred to an Optiplate microtiter plate and 100 μL of Microscint-40 scintillation cocktail was added. Plates were counted in a Packard TopCount microtiter plate counter.

The subject of experiment [3] is human neutrophils. The experiment can be described thus: Inhibition of IL-8 induced degranulation (specificity control). It is filed as cell-based. The conditions noted are these: 8 nM IL-8, FIG. 7A. On the procedure: as §1, §2
In experiment [4] the test system is C5a receptor. The conditions noted are these: literature; cited from earlier work.

This is an account of results in patent publication US5614370A, “Assay to identify human C5a antagonists and agonists” (Merck & Co., Inc., priority 1994, dated 1997).

“Also recorded” adds a separate entry of the source. Non-standard residues stand in square brackets, D forms with d. Residues, ends and D or L forms follow the SMILES beside them. NMeF = CN[C@@H](Cc1ccccc1)C(=O)O; dCha = N[C@H](CC1CCCCC1)C(=O)O

Take `CN[C@@H](Cc1ccccc1)C(=O)N[C@@H](CCCCN)C(=O)N1CCC[C@H]1C(=O)N[C@H](CC1CCCCC1)C(=O)N[C@@H](Cc1c[nH]c2ccccc12)C(=O)N[C@H](CCCNC(=N)N)C(=O)O` [C089]: in experiment [1], the “inhibition of C5a stimulated degranulation in words” value is reported as “inhibits C5a stimulated degranulation”. Moreover, the IC50 (in general, the midpoint of a concentration-inhibition curve) in experiment [1] (FIG. 7A, challenge 0.4 nM C5a) was found to be 100 nM; in experiment [2] (FIG. 7B, 3 nM C5a) it was 3000 nM. In addition, in experiment [2], the “inhibition of C5a stimulated G protein activation in words” value was “inhibits C5a stimulated degranulation and G protein activation”. Further, the “effect on IL-8 induced degranulation” value in experiment [3] is “little effect on IL-8 induced degranulation”.

`CN[C@@H](Cc1ccccc1)C(=O)N[C@@H](CCCCN)C(=O)N1CCC[C@H]1C(=O)N[C@H](CC1CCCCC1)C(=O)N[C@@H](Cc1ccccc1)C(=O)N[C@H](CCCNC(=N)N)C(=O)O` [C026, NMeF--K--P-dCha-F-dR] (H-[NMeF]KP[dCha]F[dR]-OH): the “agonist properties in words” value in experiment [4] is “reduced agonist properties; also recorded: behaved as an agonist in other assays”.
